{
  "source": "EPA's ToxRefDB 2",
  "key": {"mouse [1]": {"test_system": "mouse", "conditions": "Chronic toxicity; b6c3f1; Oral; Feed; dose end: 80 week; group: systemic; systemic / in life observation / clinical signs / alopecia + systemic / in life observation / clinical signs / distended abdomens + systemic…"}, "rat [2]": {"test_system": "rat", "conditions": "Chronic toxicity; other; Oral; Feed; dose end: 74 week; group: systemic; systemic / in life observation / body weight / body weight + systemic / in life observation / clinical signs / convulsions + systemic / in …"}, "rat [3]": {"test_system": "rat", "conditions": "Subchronic oral toxicity in rodents, other, Feed, dose end: 6 week, group: systemic, systemic / in life observation / body weight / body weight + systemic / in life observation / mortality / mortality"}, "mouse [4]": {"test_system": "mouse", "conditions": "Subchronic oral toxicity in rodents, b6c3f1, Feed, dose end: 6 week, group: systemic, systemic / in life observation / mortality / mortality"}, "rat [5]": {"test_system": "rat", "conditions": "Prenatal developmental toxicity study, sprague dawley, Oral, Gavage/Intubation, dose end: 19 GD"}, "rat [6]": {"test_system": "rat", "conditions": "Multigenerational reproductive toxicity study, sprague dawley, Oral, Feed, dose end: 2 generation"}, "mouse [7]": {"test_system": "mouse", "conditions": "Carcinogenicity; cd1; Oral; Feed; dose end: 18 month; group: systemic; systemic / pathology microscopic / bone marrow / hematopoietic cell proliferation + systemic / pathology microscopic / liver / hematopoietic…"}, "rat [8]": {"test_system": "rat", "conditions": "Prenatal developmental toxicity study, sprague dawley, Oral, Gavage/Intubation, dose end: 19 GD", "remark": "listed apart in the source"}, "rat [9]": {"test_system": "rat", "conditions": "Subchronic oral toxicity in rodents, sprague dawley, Feed, dose end: 90 day"}, "dog": {"test_system": "dog", "conditions": "Chronic toxicity; beagle; Oral; Feed; dose end: 60 week; group: systemic; systemic / clinical chemistry / thyroid stimulating hormone (thyrotropin) (tsh) / thyroid stimulating hormone (=thyrotropin) (tsh) + …"}, "rat [10]": {"test_system": "rat", "conditions": "Combined chronic toxicity/carcinogenicity; sprague dawley; Oral; Feed; dose end: 24 month; group: systemic; systemic / hematology / erythrocyte (rbc) count differential / erythrocyte (rbc) + systemic / hematology / hematocrit (hct) / hematocrit (…"}, "[11]": {"conditions": "group: developmental, developmental / developmental malformation / bone / short"}, "[12]": {"conditions": "group: maternal, systemic / in life observation / body weight / body weight gain + systemic / in life observation / body weight / body weight + systemic / in…"}, "[13]": {"conditions": "group: offspring, systemic / in life observation / body weight / offspring (pup) weight + systemic / organ weight / liver / absolute + systemic / organ weight…"}, "[14]": {"conditions": "group: parental, systemic / organ weight / spleen / absolute + systemic / organ weight / spleen / relative to body weight + systemic / pathology microscopic…"}, "[15]": {"conditions": "group: developmental, developmental / developmental malformation / bone / bent + developmental / developmental malformation / bone / delayed ossification + …"}, "[16]": {"conditions": "group: maternal, systemic / in life observation / clinical signs / [other] + systemic / pathology gross / spleen / discolored + systemic / pathology gross / …"}, "[17]": {"conditions": "group: cholinesterase, cholinesterase / cholinesterase / cholinesterase / plasma cholinesterase (che)"}, "[18]": {"conditions": "group: systemic, systemic / hematology / erythrocyte (rbc) count differential / erythrocyte (rbc) + systemic / hematology / hemoglobin (hgb) / hemoglobin (…"}, "[19]": {"conditions": "group: systemic, systemic / pathology microscopic / blood / focal cellular change"}},
  "data": [
    {"molecule": "ClC1=C(Cl)[C@]2(Cl)[C@H]3[C@H]([C@@H]4C=C[C@H]3C4)[C@@]1(Cl)C2(Cl)Cl", "note": "[Aldrin]", "values": [
      {"measurement": "LEL", "setting": "mouse [1]", "value": 0.45, "unit": "mg/kg/day"},
      {"measurement": "LOAEL", "setting": "mouse [1]", "value": "> 0.9", "unit": "mg/kg/day"},
      {"measurement": "NEL", "setting": "mouse [1]", "value": "< 0.45", "unit": "mg/kg/day"},
      {"measurement": "NOAEL", "setting": "mouse [1]", "value": "≥ 0.9", "unit": "mg/kg/day"},
      {"measurement": "LEL", "setting": "rat [2]", "value": 1.5, "unit": "mg/kg/day"},
      {"measurement": "LOAEL", "setting": "rat [2]", "value": 1.5, "unit": "mg/kg/day"},
      {"measurement": "NEL", "setting": "rat [2]", "value": "< 1.5", "unit": "mg/kg/day"},
      {"measurement": "NOAEL", "setting": "rat [2]", "value": "< 1.5", "unit": "mg/kg/day"},
      {"measurement": "LEL", "setting": "rat [3]", "value": 8, "unit": "mg/kg/day"},
      {"measurement": "LOAEL", "setting": "rat [3]", "value": "> 16", "unit": "mg/kg/day"},
      {"measurement": "NEL", "setting": "rat [3]", "value": 4, "unit": "mg/kg/day"},
      {"measurement": "NOAEL", "setting": "rat [3]", "value": "≥ 16", "unit": "mg/kg/day"},
      {"measurement": "LEL", "setting": "mouse [4]", "value": 6, "unit": "mg/kg/day"},
      {"measurement": "LOAEL", "setting": "mouse [4]", "value": "> 12", "unit": "mg/kg/day"},
      {"measurement": "NEL", "setting": "mouse [4]", "value": 3, "unit": "mg/kg/day"},
      {"measurement": "NOAEL", "setting": "mouse [4]", "value": "≥ 12", "unit": "mg/kg/day"}
    ]},
    {"molecule": "CC(C)OC(=O)Nc1cccc(Cl)c1", "note": "[Chlorpropham]", "values": [
      {"measurement": "LEL", "setting": "rat [5]; [11]", "value": 1000, "unit": "mg/kg/day"},
      {"measurement": "LOAEL", "setting": "rat [5]; [11]", "value": 1000, "unit": "mg/kg/day"},
      {"measurement": "NEL", "setting": "rat [5]; [11]", "value": 350, "unit": "mg/kg/day"},
      {"measurement": "NOAEL", "setting": "rat [5]; [11]", "value": 350, "unit": "mg/kg/day"},
      {"measurement": "LOAEL", "setting": "rat [5]; group: maternal, systemic / in life observation / body weight / body weight gain", "value": 350, "unit": "mg/kg/day"},
      {"measurement": "NEL", "setting": "rat [5]; [12]", "value": 100, "unit": "mg/kg/day"},
      {"measurement": "NOAEL", "setting": "rat [5]; [12]", "value": 100, "unit": "mg/kg/day"},
      {"measurement": "LEL", "setting": "rat [5]; group: maternal, systemic / in life observation / body weight / body weight gain + systemic / in life observation / clinical signs / red or crusty deposits …", "value": 350, "unit": "mg/kg/day"},
      {"measurement": "LEL", "setting": "rat [6]; [13]", "value": 150, "unit": "mg/kg/day"},
      {"measurement": "LOAEL", "setting": "rat [6]; [13]", "value": 150, "unit": "mg/kg/day"},
      {"measurement": "NEL", "setting": "rat [6]; [13]", "value": 50, "unit": "mg/kg/day"},
      {"measurement": "NOAEL", "setting": "rat [6]; [13]", "value": 50, "unit": "mg/kg/day"},
      {"measurement": "LEL", "setting": "rat [6]; [14]", "value": 150, "unit": "mg/kg/day"},
      {"measurement": "LOAEL", "setting": "rat [6]; [14]", "value": 150, "unit": "mg/kg/day"},
      {"measurement": "NEL", "setting": "rat [6]; [14]", "value": 50, "unit": "mg/kg/day"},
      {"measurement": "NOAEL", "setting": "rat [6]; [14]", "value": 50, "unit": "mg/kg/day"},
      {"measurement": "LEL", "setting": "mouse [7]", "value": 519, "unit": "mg/kg/day"},
      {"measurement": "LOAEL", "setting": "mouse [7]", "value": 519, "unit": "mg/kg/day"},
      {"measurement": "NEL", "setting": "mouse [7]", "value": 108, "unit": "mg/kg/day"},
      {"measurement": "NOAEL", "setting": "mouse [7]", "value": 108, "unit": "mg/kg/day"},
      {"measurement": "LEL", "setting": "rat [8]; [15]", "value": 2000, "unit": "mg/kg/day"},
      {"measurement": "LOAEL", "setting": "rat [8]; [15]", "value": 2000, "unit": "mg/kg/day"},
      {"measurement": "NEL", "setting": "rat [8]; [15]", "value": 400, "unit": "mg/kg/day"},
      {"measurement": "NOAEL", "setting": "rat [8]; [15]", "value": 400, "unit": "mg/kg/day"},
      {"measurement": "LEL", "setting": "rat [8]; [16]", "value": 400, "unit": "mg/kg/day"},
      {"measurement": "LOAEL", "setting": "rat [8]; [16]", "value": 400, "unit": "mg/kg/day"},
      {"measurement": "NEL", "setting": "rat [8]; [16]", "value": 40, "unit": "mg/kg/day"},
      {"measurement": "NOAEL", "setting": "rat [8]; [16]", "value": 40, "unit": "mg/kg/day"},
      {"measurement": "LEL", "setting": "rat [9]; [17]", "value": 1140, "unit": "mg/kg/day"},
      {"measurement": "LOAEL", "setting": "rat [9]; [17]", "value": "> 1140", "unit": "mg/kg/day"},
      {"measurement": "NEL", "setting": "rat [9]; [17]", "value": 279, "unit": "mg/kg/day"},
      {"measurement": "NOAEL", "setting": "rat [9]; [17]", "value": "≥ 1140", "unit": "mg/kg/day"},
      {"measurement": "LOAEL", "setting": "rat [9]; [18]", "value": 276, "unit": "mg/kg/day"},
      {"measurement": "NOAEL", "setting": "rat [9]; [18]", "value": 64.8, "unit": "mg/kg/day"},
      {"measurement": "LEL", "setting": "rat [9]; [19]", "value": 15.9, "unit": "mg/kg/day"},
      {"measurement": "NEL", "setting": "rat [9]; [19]", "value": "< 15.9", "unit": "mg/kg/day"},
      {"measurement": "LEL", "setting": "dog", "value": 5, "unit": "mg/kg/day"},
      {"measurement": "LOAEL", "setting": "dog", "value": 50, "unit": "mg/kg/day"},
      {"measurement": "NEL", "setting": "dog", "value": "< 5", "unit": "mg/kg/day"},
      {"measurement": "NOAEL", "setting": "dog", "value": 5, "unit": "mg/kg/day"},
      {"measurement": "LEL", "setting": "rat [10]", "value": 100, "unit": "mg/kg/day"},
      {"measurement": "LOAEL", "setting": "rat [10]", "value": 100, "unit": "mg/kg/day"},
      {"measurement": "NEL", "setting": "rat [10]", "value": 30, "unit": "mg/kg/day"},
      {"measurement": "NOAEL", "setting": "rat [10]", "value": 30, "unit": "mg/kg/day"}
    ]}
  ]
}
